Measurements published in US20170158699A1, “ADDITION SALTS OF (S)-2-(1-(6-AMINO-5-CYANOPYRIMIDIN-4-YLAMINO)ETHYL)-4-OXO-3-PHENYL-3,4-DIHYDROPYRROLO[1,2-F][1,2,4]TRIAZINE-5-CARBONITRILE” (Almirall, S.A., priority 2014, published 2017).
≈ marks a conversion by molar mass, not a printed value. Read-outs that look alike come from different tables or passages of the source.

Columns and labels:
Format in all cases: physicochemical
[1] = Differential scanning calorimetry (DSC) thermal stability
Description: The differential scanning calorimetry (DSC) thermograms were obtained using a TA Instruments Q2000 equipped with a 50 position auto-sampler. The calibration for thermal capacity was carried out using sapphire and the calibration for energy and temperature was carried out using certified indium. […] (some runs up to 400° C.). A purge of dry nitrogen at 50 ml/min was maintained over the sample.

[2] = Gravimetric Vapour Sorption (GVS) isotherm, XRPD checked afterwards; settings: for Hygroscopicity / water sorption behaviour (GVS): 0-90% RH; for Hygroscopicity / water sorption behaviour (GVS) / GVS mass change: 25° C.; for Change in form or crystallinity (XRPD) after GVS measurement: XRPD before and after GVS; for GVS mass change: from 0-90% RH
Description: X-Ray Powder Diffraction (XRPD) patterns were collected on a Bruker D8 diffractometer using Cu Ka radiation (40 kV, 40 mA), θ-2θ goniometer, and divergence of V4 and receiving slits, a Ge monochromator and a Lynxeye detector. The instrument is performance checked using a certified Corundum standard (NIST 1976). The software used for data collection was Diffrac Plus XRD Commander v2.6.1 and the data were analysed and presented using Diffrac Plus EVA v13.0.0.2 or v15.0.0.0.
Samples were run under ambient conditions as flat plate specimens using powder as received. The sample was gently packed into a cavity cut into polished, zero-background (510) silicon wafer. The sample was rotated in its own plane during analysis. The details of the data collection were: • Angular range: 2 to 42° 2θ • Step size: 0.05° 2θ • Collection time: 0.5 s/step
Gravimetric Vapour Sorption (GVS; also known as Dynamic Vapour Sorption or DVS) isotherms were obtained using a SMS DVS Intrinsic moisture sorption analyser, controlled by DVS Intrinsic Control software v1.0.1.2. The sample temperature was maintained at 25° C. by the instrument controls. The humidity was controlled by mixing streams of dry and wet nitrogen, with a total flow rate of 200 mL/min The relative humidity was measured by a calibrated Rotronic probe (dynamic range of 1.0-100% RH), located near the sample. The weight change, (mass relaxation) of the sample as a function of % RH was constantly monitored by the microbalance (accuracy ±0.005 mg).
Typically 5-20 mg of sample were placed in a tared mesh stainless steel basket under ambient conditions. The sample was loaded and unloaded at 40% RH and 25° C. (typical room conditions). A moisture sorption isotherm was performed as outlined below (4 scans giving 2 complete cycles). The standard isotherm was performed at 25° C. at 10% RH intervals over a 0-90% RH range.

Water-solubility test = settings: room temperature (25° C.)

Molecule | Stability of the sample up to temperature (DSC) [1] | Hygroscopicity / water sorption behaviour (GVS) [2] | Change in form or crystallinity (XRPD) after GVS measurement [2] | GVS mass change [2] | solubility (Water-solubility test) | Stability of the sample up to temperature (DSC) ([1]; heated at 10° C./min, dry nitrogen purge) | Water Solubility @ 25° C. (Water-solubility test)
C[C@H](Nc1ncnc(N)c1C#N)c1nn2ccc(C#N)c2c(=O)n1-c1ccccc1.O=S(=O)(O)c1ccc2ccccc2c1 [Example 2, (S)-2-(1-(6-amino-5-cyanopyrimidin-4-ylamino)ethyl)-4-oxo-3-phenyl-3,4-dihydropyrrolo[1,2-f][1,2,4]triazine-5-carbonitrile naphthalene-2-sulfonate] | more than 250 °C | reversible and no hydrates were formed | no change in form or crystallinity | approx. 3.3% |  |  | 
C[C@H](Nc1ncnc(N)c1C#N)c1nn2ccc(C#N)c2c(=O)n1-c1ccccc1.Cc1ccc(S(=O)(=O)O)cc1 [Example 3, (S)-2-(1-(6-amino-5-cyanopyrimidin-4-ylamino)ethyl)-4-oxo-3-phenyl-3,4-dihydropyrrolo[1,2-f][1,2,4]triazine-5-carbonitrile para-toluenesulfonate] | more than 250 °C | not hygroscopic | no change in form or crystallinity | approx. 0.3% |  |  | 
C[C@H](Nc1ncnc(N)c1C#N)c1nn2ccc(C#N)c2c(=O)n1-c1ccccc1 [Example C1, (S)-2-(1-(6-amino-5-cyanopyrimidin-4-ylamino)ethyl)-4-oxo-3-phenyl-3,4-dihydropyrrolo[1,2-f][1,2,4]triazine-5-carbonitrile] |  |  |  |  | 1 µg/mL (≈ 2.52 µM) |  | 
(S)-2-(1-(6-amino-5-cyanopyrimidin-4-ylamino)ethyl)-4-oxo-3-phenyl-3,4-dihydropyrrolo[1,2-f][1,2,4]triazine-5-carbonitrile methanesulfonate [Example 1] |  | not hygroscopic | no change in form or crystallinity | approx. 1.2% |  | more than 300 °C | 60 µg/mL
